Experimental data reported in patent US12344600B2, “c-Myc mRNA translation modulators and uses thereof in the treatment of cancer” (Anima Biotech Inc., priority 2022, dated 2025).

Test system: c-Myc
Test: c-Myc immunofluorescence assay
Type: cell-based, human
Settings: A549 cells, 24 hours, anti-c-Myc immunofluorescence
Procedure, shortened: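 A549 NSCLC cells grown 48 h, then treated 24 h with increasing compound concentrations; fixed in 4% paraformaldehyde, stained with anti-c-Myc antibody plus fluorescent secondary and DAPI. Per-cell c-Myc fluorescence quantified by high-content imaging at 20×; dose-response fitted by logistic regression to give EC50.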

SMILES | Myc Efficacy (−LogEC50)
COc1ccc(-c2noc(N3CCC(C(=O)NCC4CCCc5cccnc54)CC3)n2)cc1 (stereo not shown) [Compound 301, 1-(3-(4-methoxyphenyl)-1,2,4-oxadiazol-5-yl)-N-((5,6,7,8-tetrahydroquinolin-8-yl)methyl)piperidine-4-carboxamide] | + (+ >3 and <5)
COc1ccc(-c2noc(N3CCC(C(=O)NC4CCN(C)c5ccccc54)CC3)n2)cc1 (stereo not shown) [Compound 302, 1-(3-(4-methoxyphenyl)-1,2,4-oxadiazol-5-yl)-N-(1-methyl-1,2,3,4-tetrahydroquinolin-4-yl)piperidine-4-carboxamide] | + (+ >3 and <5)
COc1ccc(-c2noc(N3CCC(C(=O)NCC4OCCc5ccccc54)CC3)n2)cc1 (stereo not shown) [Compound 303, N-(isochroman-1-ylmethyl)-1-(3-(4-methoxyphenyl)-1,2,4-oxadiazol-5-yl)piperidine-4-carboxamide] | + (+ >3 and <5)
COc1ccc(-c2noc(N3CCC(C(=O)NCC(c4ccccc4)N(C)C)CC3)n2)cc1 (stereo not shown) [Compound 304, N-(2-(dimethylamino)-2-phenylethyl)-1-(3-(4-methoxyphenyl)-1,2,4-oxadiazol-5-yl)piperidine-4-carboxamide] | + (+ >3 and <5)
COc1ccc(-c2noc(N3CCC(C(=O)NCC(O)Cc4ccccc4)CC3)n2)cc1 (stereo not shown) [Compound 305, N-(2-hydroxy-3-phenylpropyl)-1-(3-(4-methoxyphenyl)-1,2,4-oxadiazol-5-yl)piperidine-4-carboxamide] | + (+ >3 and <5)
COc1ccc(-c2noc(N3CCC(C(=O)Nc4ccc(C5COC5)cc4)CC3)n2)cc1 [Compound 306, 1-(3-(4-methoxyphenyl)-1,2,4-oxadiazol-5-yl)-N-(4-(oxetan-3-yl)phenyl)piperidine-4-carboxamide] | + (+ >3 and <5)
COc1ccc(-c2noc(N3CCC(C(=O)NCC4(c5ccc(F)cc5F)CC4)CC3)n2)cc1 [Compound 307, N-((1-(2,4-difluorophenyl)cyclopropyl)methyl)-1-(3-(4-methoxyphenyl)-1,2,4-oxadiazol-5-yl)piperidine-4-carboxamide] | + (+ >3 and <5)
COc1ccc(-c2noc(N3CCC(C(=O)NCc4ccc(OC)c(C(F)(F)F)c4)CC3)n2)cc1 [Compound 308, N-(4-methoxy-3-(trifluoromethyl)benzyl)-1-(3-(4-methoxyphenyl)-1,2,4-oxadiazol-5-yl)piperidine-4-carboxamide] | + (+ >3 and <5)
COc1ccc(-c2noc(N3CCC(C(=O)NCCc4cccc(C(F)(F)F)n4)CC3)n2)cc1 [Compound 309, 1-(3-(4-methoxyphenyl)-1,2,4-oxadiazol-5-yl)-N-(2-(6-(trifluoromethyl)pyridin-2-yl)ethyl)piperidine-4-carboxamide] | − (− ≤3)
COc1ccc(-c2noc(N3CCC(C(=O)NC(C)Cc4c[nH]c5ccccc45)CC3)n2)cc1 (stereo not shown) [Compound 310, N-(1-(1H-indol-3-yl)propan-2-yl)-1-(3-(4-methoxyphenyl)-1,2,4-oxadiazol-5-yl)piperidine-4-carboxamide] | + (+ >3 and <5)
COc1ccc(-c2noc(N3CCC(C(=O)NCc4cc(C)ccc4F)CC3)n2)cc1 [Compound 311, N-(2-fluoro-5-methylbenzyl)-1-(3-(4-methoxyphenyl)-1,2,4-oxadiazol-5-yl)piperidine-4-carboxamide] | − (− ≤3)
COc1ccc(-c2noc(N3CCC(C(=O)NC4CCC5(CCOCC5)CC4)CC3)n2)cc1 [Compound 312, 1-(3-(4-methoxyphenyl)-1,2,4-oxadiazol-5-yl)-N-(3-oxaspiro[5.5]undecan-9-yl)piperidine-4-carboxamide] | + (+ >3 and <5)
COc1ccc(-c2noc(N3CCC(C(=O)NC(C)C4CCCCO4)CC3)n2)cc1 (stereo not shown) [Compound 313, 1-(3-(4-methoxyphenyl)-1,2,4-oxadiazol-5-yl)-N-(1-(tetrahydro-2H-pyran-2-yl)ethyl)piperidine-4-carboxamide] | − (− ≤3)
COc1ccc(-c2noc(N3CCC(C(=O)NCCN(C)C4CC4)CC3)n2)cc1 [Compound 314, N-(2-(cyclopropyl(methyl)amino)ethyl)-1-(3-(4-methoxyphenyl)-1,2,4-oxadiazol-5-yl)piperidine-4-carboxamide] | + (+ >3 and <5)
COc1ccc(-c2noc(N3CCC(C(=O)N[C@@H](CCO)C(C)C)CC3)n2)cc1 [Compound 315, (S)-N-(1-hydroxy-4-methylpentan-3-yl)-1-(3-(4-methoxyphenyl)-1,2,4-oxadiazol-5-yl)piperidine-4-carboxamide] | + (+ >3 and <5)
COc1ccc(-c2noc(N3CCC(C(=O)N[C@H]4CCN(Cc5ccccc5)C4)CC3)n2)cc1 [Compound 316, (S)-N-(1-benzylpyrrolidin-3-yl)-1-(3-(4-methoxyphenyl)-1,2,4-oxadiazol-5-yl)piperidine-4-carboxamide] | + (+ >3 and <5)

SMILES | Myc Efficacy (−LogEC50)
COc1ccc(-c2noc(N3CCC(C(=O)NCCc4c[nH]c5cc(C)ccc45)CC3)n2)cc1 [Compound 317, 1-(3-(4-methoxyphenyl)-1,2,4-oxadiazol-5-yl)-N-(2-(6-methyl-1H-indol-3-yl)ethyl)piperidine-4-carboxamide] | ++ (++ ≥5 and <6)
COc1ccc(-c2noc(N3CCC(C(=O)NCc4cnc(C(F)(F)F)s4)CC3)n2)cc1 [Compound 318, 1-(3-(4-methoxyphenyl)-1,2,4-oxadiazol-5-yl)-N-((2-(trifluoromethyl)thiazol-5-yl)methyl)piperidine-4-carboxamide] | + (+ >3 and <5)
COc1ccc(-c2noc(N3CCC(C(=O)Nc4cc(Cl)c(Cl)cn4)CC3)n2)cc1 [Compound 319, N-(4,5-dichloropyridin-2-yl)-1-(3-(4-methoxyphenyl)-1,2,4-oxadiazol-5-yl)piperidine-4-carboxamide] | + (+ >3 and <5)
COc1ccc(-c2noc(N3CCC(C(=O)NCC4CCN(Cc5ccco5)C4)CC3)n2)cc1 (stereo not shown) [Compound 320, N-((1-(furan-2-ylmethyl)pyrrolidin-3-yl)methyl)-1-(3-(4-methoxyphenyl)-1,2,4-oxadiazol-5-yl)piperidine-4-carboxamide] | + (+ >3 and <5)
COc1ccc(-c2noc(N3CCC(C(=O)NCC4CCN(Cc5ccccc5O)C4)CC3)n2)cc1 (stereo not shown) [Compound 321, N-((1-(2-hydroxybenzyl)pyrrolidin-3-yl)methyl)-1-(3-(4-methoxyphenyl)-1,2,4-oxadiazol-5-yl)piperidine-4-carboxamide] | ++ (++ ≥5 and <6)
COc1ccc(-c2noc(N3CCC(C(=O)NCC4CCN(Cc5ccncc5)C4)CC3)n2)cc1 (stereo not shown) [Compound 322, 1-(3-(4-methoxyphenyl)-1,2,4-oxadiazol-5-yl)-N-((1-(pyridin-4-ylmethyl)pyrrolidin-3-yl)methyl)piperidine-4-carboxamide] | ++ (++ ≥5 and <6)
COc1ccc(-c2noc(N3CCC(C(=O)NCC4CCN(CC5CCCC5)C4)CC3)n2)cc1 (stereo not shown) [Compound 323, N-((1-(cyclopentylmethyl)pyrrolidin-3-yl)methyl)-1-(3-(4-methoxyphenyl)-1,2,4-oxadiazol-5-yl)piperidine-4-carboxamide] | ++ (++ ≥5 and <6)
C#Cc1cccc(CN2CCC(CNC(=O)C3CCN(c4nc(-c5ccc(OC)cc5)no4)CC3)C2)c1 (stereo not shown) [Compound 324, N-((1-(3-ethynylbenzyl)pyrrolidin-3-yl)methyl)-1-(3-(4-methoxyphenyl)-1,2,4-oxadiazol-5-yl)piperidine-4-carboxamide] | ++ (++ ≥5 and <6)
COc1ccc(-c2noc(N3CCC(C(=O)NCC4CCN(Cc5cc[nH]c5)C4)CC3)n2)cc1 (stereo not shown) [Compound 325, N-((1-((1H-pyrrol-3-yl)methyl)pyrrolidin-3-yl)methyl)-1-(3-(4-methoxyphenyl)-1,2,4-oxadiazol-5-yl)piperidine-4-carboxamide] | + (+ >3 and <5)
COc1ccc(-c2noc(N3CCC(C(=O)NCC4CCN(Cc5cc(C)ccn5)C4)CC3)n2)cc1 (stereo not shown) [Compound 326, 1-(3-(4-methoxyphenyl)-1,2,4-oxadiazol-5-yl)-N-((1-((4-methylpyridin-2-yl)methyl)pyrrolidin-3-yl)methyl)piperidine-4-carboxamide] | ++ (++ ≥5 and <6)
COc1ccc(-c2noc(N3CCC(C(=O)NCC4CCN(CC(C)(C)C)C4)CC3)n2)cc1 (stereo not shown) [Compound 327, 1-(3-(4-methoxyphenyl)-1,2,4-oxadiazol-5-yl)-N-((1-neopentylpyrrolidin-3-yl)methyl)piperidine-4-carboxamide] | + (+ >3 and <5)
COc1ccc(-c2noc(N3CCC(C(=O)NCC4CCN(Cc5ccccc5C)C4)CC3)n2)cc1 (stereo not shown) [Compound 328, 1-(3-(4-methoxyphenyl)-1,2,4-oxadiazol-5-yl)-N-((1-(2-methylbenzyl)pyrrolidin-3-yl)methyl)piperidine-4-carboxamide] | ++ (++ ≥5 and <6)
COc1ccc(-c2noc(N3CCC(C(=O)NCC4CCN(Cc5cnccc5C)C4)CC3)n2)cc1 (stereo not shown) [Compound 329, 1-(3-(4-methoxyphenyl)-1,2,4-oxadiazol-5-yl)-N-((1-((4-methylpyridin-3-yl)methyl)pyrrolidin-3-yl)methyl)piperidine-4-carboxamide] | + (+ >3 and <5)
COc1ccc(-c2noc(N3CCC(C(=O)NCC4CCN(Cc5ccoc5)C4)CC3)n2)cc1 (stereo not shown) [Compound 330, N-((1-(furan-3-ylmethyl)pyrrolidin-3-yl)methyl)-1-(3-(4-methoxyphenyl)-1,2,4-oxadiazol-5-yl)piperidine-4-carboxamide] | + (+ >3 and <5)
COc1ccc(-c2noc(N3CCC(C(=O)NCC4CCN(Cc5ccc(F)cc5)C4)CC3)n2)cc1 (stereo not shown) [Compound 331, N-((1-(4-fluorobenzyl)pyrrolidin-3-yl)methyl)-1-(3-(4-methoxyphenyl)-1,2,4-oxadiazol-5-yl)piperidine-4-carboxamide] | ++ (++ ≥5 and <6)
